{"source": "patent US11062797B2", "about": "“Method and system for obtaining and using pharmacokinetic data in drug administration” (Continuous Precision Medicine, priority 2014, dated 2021)", "key": {"[1]": {"test_system": "DISE patients", "conditions": "cited from earlier work; for average time for the procedures: DeVito et al."}, "[2]": {"test_system": "patients with severe OSA", "description": "Ninety-seven (97) patients were enrolled in a prospective study of transoral robotic resection of the tongue base; the examples described below provided a secondary outcome measure of that study. […] The apnea-hypopnea index (AHI) for each patient was recorded from the sleep study. For each patient the saturation nadirs from the sleep study and DISE were paired for statistical analysis. […] The system utilizes the Cortinez pharmacokinetic model (Cortinez et al., Br J Anaesth. 2010; 105:448-56.) and the Johnson pharmacodynamic model (Johnson et al., Anesth Analg. 2008; 106:471-9.) to determine an infusion sequence comprised of a bolus, initial infusion, secondary infusion, and a time for transition from the initial to secondary infusion using the age and weight of the individual patient. This sequence minimizes the difference between the predicted probability of loss of responsiveness and a linear ramp. This is termed probability ramp control (PRC). A brief description of the mathematical approach can be found below. The MATLAB® program (an embodiment of the system) performed the calculations, indicated the time to perform the transition to the second infusion, and logged the time at which obstruction was noted.\nAll DISE studies were performed in an operating room with standard monitors and resuscitation equipment. A single otorhinolaryngologist performed each nasopharyngoscopy. […] All DISE patients received 2 liters per minute supplemental oxygen via a nasal cannula placed in the mouth. Supplemental oxygen was not used during polysomnography studies (as is typical for this procedure). Pulse oximetry data was recorded for subsequent analysis from a Nellcor pulse oximeter (Covidien, Mansfield, Mass.) at 30-second intervals by the DocuSys anesthesia record keeping system. […] A Baxter AS50 pump (Baxter, Deerfield, Ill.) was programmed with the initial bolus and infusion rates as determined by the control system. […] With the bronchoscope in position to observe the velopharynx, the sedation sequence proceeded until the onset of obstruction was noted. This was identified as the obstruction clinical endpoint. Observation of the pharynx was performed for a sufficient period to obtain images of the anatomic site(s) of obstruction. The infusion was then terminated and the patient allowed to recover. Patient characteristics and derived pharmacokinetic measures were assessed for normal distribution using the Lilliefors test at 5% significance level using the Statistics Toolbox of MATLAB® 8.0 (MathWorks, Natick, Mass.). […] Comparison of saturation nadirs from DISE and polysomnography was performed with both the paired and unpaired Student's t-test. […] No power analysis was performed for this study, as it was a secondary outcome measure for the larger study of transoral robotic surgery."}, "[3]": {"test_system": "endoscopic sedation patients", "conditions": "anesthetist-administered propofol sedation; cited from earlier work"}, "[4]": {"test_system": "patients scheduled for elective esophagogastroduodenoscopy (EGD)", "conditions": "for Maximum Effect Site: Cortinez model estimate; for Maximum Effect Site / Target Effect Site / Time to target: median (IQR); for Target Effect Site: at loss of responsiveness to nasopharyngeal airway placement; for patients with oxygen saturation values below 90%: 100% oxygen via Robertazzi airway", "description": "In addition to ASA standard monitors, respiratory inductance plethysmography (RIP) (Ambulatory Monitoring Inc, Armonk, N.Y.), SEDLine® patient state index (PSI) (Masimo Corp, Irvine, Calif.) and RAD87 pulse oximeter (Masimo Corp, Irvine, Calif.) were applied. All patients received 50 μg of fentanyl immediately prior to initiation of sedation. […] In the experimental arm, patient age and weight were used by the PRC algorithm to calculate bolus, infusion1, infusion2, and time for transition from infusion1 to infusion2. These numbers were reviewed by an investigator prior to initiation of sedation, and when the patient could tolerate airway placement, the software determined the maintenance infusion to maintain the effect-site concentration at the value existing at that time. Custom software written in Labview 2012 (National Instruments, Austin, Tex.) performed these calculations, transmitted the infusion rates to a Graseby 3400 pump (Marcal Medical, Millersville, Md.), and acquired data from the monitors.\nAll patients were preoxygenated using a Mapleson circuit at oxygen flows greater than 10 liters per minute. Following placement of the Robertazzi airway, the Mapleson circuit was connected to the airway via the connector from an endotracheal tube and the adjustable pressure limit valve closed, assuring continuous flow of 100% oxygen into the hypopharynx.\nIn experimental patients, the CRNA could request additional boluses or changes in infusion rates as they saw fit. […] This measure is reported in two ways. The first is termed “adjustment dose”, which is the cumulative absolute value of the difference between the intended trajectory and the actual administration. The second is the “intended ratio”, which is the ratio of the dose delivered on the intended trajectory and the actual administration. These measures are depicted in FIG. 7. In FIG. 7, the dotted line indicates the actual infusion rates, while the solid line indicates the intended trajectory (fixing the infusion rate at 300 μg/kg/min).\nVentilatory depression was assessed from respiratory inductance plethysmography signals. The signals were filtered by ensemble empirical mode decomposition employing 450 realizations and noise scaled to 40% of signal power. The dominant mode was used for the Huang-Hilbert Transform (HHT). Minute ventilation was computed as the product of the respiratory rate times the magnitude of volume change at one second intervals. Baseline ventilation was determined from several breaths prior to initiation of sedation; subsequent measurements were normalized by this baseline value. These values were grouped into one minute epochs and the median of values less than 100% obtained. Values above 100% were excluded for two reasons.\nOxygen saturation was acquired from the RAD87 at one second intervals, as was the patient state index. Obvious artifacts such as sensor dislodgement were excluded from analysis. Desaturation is reported as cumulative time below specified saturation in the range from 54% to 90%.\nEffect site estimates were calculated using the Cortinez model employing the nominal values, with an adjoined effect compartment. The ke0 was chosen to yield a time to peak effect of 1.6 minutes. MATLAB® code for the state-space implementation of this model with observation of the effect site is available on the OpenTCI website."}, "[5]": {"conditions": "Nominal Cortinez model; cited from earlier work"}}, "note": "“And” between values parts separate entries of the source, which are not always exact repeats. Equal entries are not always repeated. Where two headings read alike, the source gives them in different places.", "data": [{"smiles": "CC(C)c1cccc(C(C)C)c1O", "note": "[propofol]", "values": [{"measurement": "average time for the procedures", "setting": "[1]; TCI group", "value": 15.2, "unit": "min"}, {"measurement": "patients demonstrating sedation instability", "setting": "[1]; TCI group", "value": 5, "unit": "%"}, {"measurement": "average time for the procedures", "setting": "[1]; manual control group", "value": 6.2, "unit": "min"}, {"measurement": "patients demonstrating sedation instability", "setting": "[1]; manual propofol bolus group", "value": 65, "unit": "%"}, {"measurement": "median saturation nadir during DISE", "setting": "[2]; 2 liters per minute supplemental oxygen, median ± IQR, polysomnography 81.0±11.25%", "value": "91.4±5.1", "unit": "%"}, {"measurement": "predicted effect-site concentration for obstruction", "setting": "[2]; Cortinez model, ke0 for time to peak effect of 1.6 minutes", "value": "4.2 ± 1.3", "unit": "µg/mL"}, {"measurement": "median time to obstruction", "setting": "[2]; DISE, PRC infusion, n=97, median (IQR)", "value": "3.8 (IQR 1.2) minutes"}, {"measurement": "mean predicted effect-site concentration of propofol at obstruction", "setting": "[2]; DISE, PRC infusion, Cortinez model with adjoined effect compartment", "value": "4.2 ± 1.3", "unit": "µg/mL"}, {"measurement": "adverse events", "setting": "[2]; DISE, all patients", "value": "no adverse events"}, {"measurement": "mean time to obstruction", "setting": "[2]; control system according to Example 1", "value": 3.9, "unit": "min"}, {"measurement": "lowest saturation measured", "setting": "[2]; oxygen at 2 liters per minute via oral cannula", "value": 74, "unit": "%"}, {"measurement": "median saturation nadir during DISE", "setting": "[2]; sub-cohort of 7 patients whose nadir was not lower during polysomnography", "value": 85, "unit": "%"}, {"measurement": "BIS values, mean and standard deviation", "setting": "[3]", "value": "72.1±15.1"}, {"measurement": "Maximum Effect Site", "setting": "[4]; Control (CRNA dosing)", "value": "6.1 (3.5) μg/ml"}, {"measurement": "Target Effect Site", "setting": "[4]; Control (CRNA dosing)", "value": "4.8 (1.6) μg/ml"}, {"measurement": "Time to target", "setting": "[4]; Control (CRNA dosing)", "value": "2 (2.2) min"}, {"measurement": "Maximum Effect Site", "setting": "[4]; Experimental (PRC)", "value": "5.3 (4.6) NS μg/ml"}, {"measurement": "Target Effect Site", "setting": "[4]; Experimental (PRC)", "value": "4.9 (2.9) NS μg/ml"}, {"measurement": "Time to target", "setting": "[4]; Experimental (PRC)", "value": "3.9 (1.6) min and 3.9 (1.6) * min"}, {"measurement": "additional time to achieve endoscope placement", "setting": "[4]; PRC system versus control", "value": 111, "unit": "s"}, {"measurement": "patients identified at targets below 3.9 μg/ml", "setting": "[4]; control group (CRNA dosing)", "value": "No control patients"}, {"measurement": "patients with oxygen saturation values below 90%", "setting": "[4]; control patients", "value": 3}, {"measurement": "patients identified at targets below 3.9 μg/ml", "setting": "[4]; experimental group (PRC)", "value": "5/20"}, {"measurement": "patients with targets below effect-site concentrations of 3.9 μg/ml", "setting": "[4]; experimental group (PRC)", "value": 20, "unit": "%"}, {"measurement": "patients with oxygen saturation values below 90%", "setting": "[4]; experimental patients", "value": 2}, {"measurement": "Q2", "setting": "[5]", "value": 3.2, "unit": "L/min"}, {"measurement": "V3", "setting": "[5]", "value": 53.8, "unit": "L"}]}]}
